Data on 1 compound can be found in patent US11040056B2, “Benzimidazoles that enhance the activity of oligonucleotides” (The University of North Carolina at Chapel Hill, priority 2018, dated 2021).

Each structure is given as a SMILES string. Bounds are passed on as bounds.

A short description of data set [1]: In vivo toxicity parameters (cardiac blood samples).
Protocol: All animal procedures were conducted in compliance with guidelines of the UNC Laboratory Animal Medicine Department and with federal guidelines. […] (20, 32) EGFP654 mice were administered 35 mg/kg of SSO623 or mismatched oligonucleotide in buffer by intraperitoneal injection on two consecutive days. One day later, mice received either 5 mg/kg of UNC2383 in a 1:1 DMSO/PEG400 solution or only the diluent, via intraperitoneal injection. […] After 24 h, the second cohort was euthanized and tissue and cardiac blood samples were obtained. […] (31) Blood samples were analyzed by the UNC Animal Clinical Chemistry Core facility.
The subject of the next data set is EGFP654 transgenic mouse. Nature of the data set: In vivo EGFP splice correction in EGFP654 transgenic mice. On the procedure:
FIG. 10A-10E. In vivo effects-RNA. EGFP654 mice were treated with SSO623 or a mismatched control (MM) and then received UNC2383 or diluent (N=3). RT-PCR with gel analysis was used to detect correctly or incorrectly spliced EGFP mRNA. The gel images were quantitated using Fiji software. Gel image for liver FIG. 10A. The lower band (87 bp) is correctly spliced EGFP mRNA, while the upper band (160 bp) is uncorrected. FIG. 10B-10E Quantitation of splice correction in liver FIG. 10B, kidney FIG. 10C, intestine FIG. 10D, and lung FIG. 10E. The bars indicate the ratio of correctly spliced to incorrectly spliced mRNA×100. […] EGFP immunostaining was performed in liver, lung, and intestine tissue and analyzed by confocal microscopy. […]
Effects of UNC2383 on endosome stability were monitored in cell culture models as previously described. […] Live cells were imaged by fluorescence confocal microscopy with or without treatment with UNC2383 or its analogs. […] Co-localization of TAMRA labeled SSO 623 with marker proteins was quantitated using Fiji (ImageJ) software and expressed as a Manders' Correlation Coefficient. […] EGFP protein expression was monitored by immunostaining with an anti-EGFP antibody (Abcam) using techniques previously described. […]
PCR techniques. […] The PCR products were separated on 1.5% agarose gels and bands were visualized by staining with Gel RedTMand quantitated using a Biorad ChemiDoc XRS+ scanner. […]

The test system of another data set is NIH-3T3-MDR cells. Nature of the data set: Alamar Blue cytotoxicity assay. Conditions: 2 h exposure, then 24 h, FIG. 1E. It counts as cell-based. On the procedure: FIG. 1B-1E. Effects with SSOs. FIG. 1B Structure of UNC2383. FIG. 1C Compound 2383 enhances SSO effects. Cells were incubated in 24-well plates with 100 nM SSO623 or its mismatched control (MM) for 16 h in DMEM+10% FBS, rinsed and then treated with various concentrations of 2383 for 2 h. The cells were then rinsed and incubation continued for an additional 4 h in DMEM+10% FBS. Cells were rinsed twice in PBS and luciferase activity (RLU) and cell protein determined. The larger round symbol indicates the MM oligonucleotide. Means+/−SE. N=3. FIG. 1D Kinetics of 2383 action. Cells were preloaded with 100 nM SSO623 and then exposed to 2383 for various periods after which the compound was removed. The cells were further incubated and then luciferase and protein determined. The total time of incubation in each case was 6 h. FIG. 1E Cytotoxicity of 2383. HeLa Luc705 or NIH-3T3-MDR cells were exposed to 2383 as in (FIG. 1C) then incubated for 24 h in DMEM plus 10% FBS and tested using the Alamar Blue cytotoxicity assay. Means+/−SE. N=3.
SSO-mediated luciferase induction assays were conducted as previously described. (18) In short, HeLaLuc705 cells in 24 well culture plates were preincubated with SSO623 followed by brief treatment with the small molecule; at intervals thereafter, luciferase activity and protein content were determined. […] Cytotoxicity of 2383 was monitored using the Alamar Blue assay. […]

[2] abbreviates: 24 h after administration, means +/− SE, N = 4.

Regarding `O=C(Nc1nc2ccccc2n1CCN1CCCC1)c1cc2cc(Cl)ccc2o1` [UNC2383], the toxicity in vivo entry in data set [1] (5 mg/kg i.p.) is listed as “limited toxicity”. In data set [1] (setting [2]), the ALT is 106 +/− 32 U/L, the AST is 76 +/− 15 U/L, the BUN is 20 ± 4 mg/dL and the Hb is 11.8 ± 0.4 g/dL. Further, in data set [1] (setting [2]), the Platelets is 711 +/− 85 × 10^3/ul. The “correctly spliced EGFP message (RT-PCR)” value with EGFP654 transgenic mouse (35 mg/kg SSO623 i.p. two days, then 5 mg/kg UNC2383 i.p., liver, kidney, lung, intestine, 5 h) is reported as “increase in correctly spliced EGFP message”. For the same compound, the “EGFP protein expression (immunostaining)” value with EGFP654 transgenic mouse (SSO623 plus UNC2383, bronchi, intestinal crypts, 24 h) is reported as “expressed EGFP”. Further, the “concentrations showing little toxicity” value in the data set with NIH-3T3-MDR cells is no more than 10 µM.
